A short description of series [1]: Blood brain barrier crossing: subcutaneous pump infusion, content in blood, bone and brain parts by ELISA. As to conditions: Osteocalcin−/− mice, subcutaneous pumps 50 ng/hour, seven days. It is filed as in vivo, mouse. How it is done:
Osteocalcin−/−, Gprc6a−/−, Osteocalcin-mCherry, and Osteocalcin foxed mice have been previously described (Ducy et al., 1996, Nature 382:448-452; Oury et al., 2011, Cell 144:796-809). Mouse genotypes were determined by PCR. For all experiments, controls were littermate female WT, Cre-expressing, or flox/flox. All mice were maintained on a pure 129-Sv genetic background except for the inducible deletion Osteocalcin model (mix background: 25% C57/BL6 and 75% 129sv). For inducible gene deletion mice, tamoxifen was prepared in corn oil and injected intraperitoneally (IP) (1 mg/20g of body weight) over one week. For osteocalcin delivery to pregnant mice, IP injections (240 ng/day) were performed as soon as a plug was present daily until delivery (E0.5-E18.5). For osteocalcin or leptin infusion in adult Osteocalcin−/− or ob/ob mice, pumps (Alzet micro-osmotic pump, Model 1002) delivering osteocalcin (300 ng/hr), leptin (50 ng/hr), or vehicle were surgically installed subcutaneously in the backs of 3-month old mice. For the postnatal rescue of cognitive functions in Osteocalcin−/− mice, osteocalcin (10 ng/hour) or vehicle were delivered intrasubventricularly (icv) as previously described (Ducy et al., 2000, Cell 100:197-207). Leptin and osteocalcin content in sera and tissues were determined by ELISA.
To understand how this behavioral phenotype develops, whether osteocalcin crosses the blood brain barrier (BBB) was tested by installing pumps that subcutaneously delivered vehicle or uncarboxylated osteocalcin (50 ng/hour) in three-month-old Osteocalcin−/− mice. The positive control for this experiment was subcutaneous infusion of leptin (50 ng/hour) in 3 month-old ob/ob mice, since leptin is known to cross the BBB (Banks et al., 1996, Peptides 17:305-311). Seven days later, osteocalcin and leptin content were measured in blood, bone, and in various parts of the brain in Osteocalcin−/− and ob/ob mice, respectively.
(In general: ELISA stands for enzyme-linked immunosorbent assay.)

Series [2] concerns CREB phosphorylation in the hippocampus. Put plainly: Stereotactic injection into hippocampus, pCREB and PKA immunofluorescence. It is filed as in vivo, mouse. The conditions noted are these: 16 h post injection. The source says:
The resulting effects on animal behavior of direct recombinant uncarboxylated osteocalcin delivery raise the question of the molecular mechanism of action of osteocalcin in the brain. Given that osteocalcin acts through a G-protein coupled receptor pathway in other tissues, e.g., pancreas and testis, the phosphorylated CREB levels in the hippocampi of Ocn−/− and WT animals was checked. […] The hippocampus is essential for optimal spatial learning and memory in rodents. It was then asked whether the acute stereotactic injection of 10 ng of recombinant uncarboxylated osteocalcin directly into the hippocampus of WT animals would affect pCREB levels.

The subject of series [3] is cAMP production in hippocampal neurons. Put plainly: cAMP accumulation in primary hippocampal neurons. It is filed as cell-based, mouse. The conditions noted are these: cultured hippocampal neurons. How it is done:
Hippocampal neurons were isolated from mouse embryos (embryonic day 16.5). After dissection, hippocampi were digested in Tryspin 0.05% and EDTA 0.02% for 15 minutes at 37° C. After 3 wash in DMEM (high glucose and sodium pyruvate) supplemented with 10% of fetal bovine serum, 100 U/mL Penicillin-Streptomycin and 1× GlutaMAX, cells were dissociated by pipetting up and down and then plated. After the culture was established, medium was changed 2 times per week with Neurobasal medium supplemented with B-27 supplement and 1× GlutaMAX. Experiments were performed on cells after 15 days of culture (DIV 15).
For Western blotting, frozen hippocampi from adult mice were lysed and homogenized in 250 µl tissue lysis buffer (25 mM Tris HCl 7.5; 100 mM NaF; 10 mM Na4P2O7; 10 mmM EDTA; 1% NP 40). Proteins were transferred to nitrocellulose membranes, and blocked with TBST-5% BSA for 1 hour. […] Western blot bands were quantified using ImageJ software. cAMP accumulation was measured in primary hippocampal neurons by using cAMP Parameter Assay Kit (R&D systems) and performed in primary hippocampal neurons (DIV15) following manufacturer instructions. For IP1 accumulation was determined in primary hippocampal neurons (DIV15) by using IP-One ELISA assay kit (Cisbio) following manufacturer instructions. […]

On to “osteocalcin: Recombinant osteocalcin bacterially produced, cleaved from the GST subunit; completely undercarboxylated at all three sites; full-length mouse osteocalcin (YLGASVPSPDPLEPTREQCELNPACDELSDQYGLKTAYKRIYGITI)”, for which, in series [1], the “osteocalcin accumulation in parts of the brain” value was “accumulated in Osteocalcin−/− mice in the brainstem, thalamus, and hypothalamus”; the “osteocalcin concentration in brainstem, thalamus, and hypothalamus relative to that observed in serum” value was around 50%. In series [2] (10 ng into hippocampus of WT animals, vs PBS hemisphere), the pCREB staining entry was “pCREB staining was increased”. Also, the PKA staining entry in series [2] (10 ng into hippocampus, injected hemisphere) was “widespread and dramatic increase in PKA staining”. In addition, in series [3], the cAMP production result is recorded as “did not affect cAMP production”.

The values above are taken from patent publication US20200069775A1, “BRAIN OSTEOCALCIN RECEPTOR AND COGNITIVE DISORDERS” (The Trustees of Columbia University in the City of New York, priority 2017, published 2020).
